Measured values taken from ChEMBL document CHEMBL1144144, “Methylsulfomycin I, a new cyclic peptide antibiotic from a Streptomyces sp. HIL Y-9420704” (1999).
Converted amounts (≈) assume the structure as drawn.

Tests used:
[1] = system: Enterococcus faecium; experiment: Antimicrobial activity against vancomycin and teicoplanin-resistant Enterococcus faecium P-1; type: functional
[2] = system: Staphylococcus haemolyticus; experiment: Antimicrobial activity against teicoplanin-sensitive Staphylococcus haemolyticus 712; type: functional
[3] = system: Enterococcus faecium; experiment: Antimicrobial activity against vancomycin and teicoplanin-resistant Enterococcus faecium R-2; type: functional
[4] = system: Staphylococcus epidermidis; experiment: Antimicrobial activity against teicoplanin-sensitive Staphylococcus epidermidis 825; type: functional
[5] = system: Enterococcus faecium; experiment: Antimicrobial activity against vancomycin and teicoplanin-resistant Enterococcus faecium R-1; type: functional
[6] = system: Enterococcus equinus; experiment: Antimicrobial activity against vancomycin and teicoplanin-resistant Enterococcus equinus
[7] = system: Enterococcus faecium; experiment: Antimicrobial activity against vancomycin and teicoplanin-resistant Enterococcus faecium R-2 relative to vancomycin; type: functional
[8] = system: Staphylococcus aureus; experiment: Antimicrobial activity against methicillin-resistant Staphylococcus aureus; type: functional
[9] = system: Enterococcus faecium; experiment: Antimicrobial activity against vancomycin and teicoplanin-resistant Enterococcus faecium R-1 relative to vancomycin; type: functional
[10] = system: Enterococcus faecium; experiment: Antimicrobial activity against vancomycin and teicoplanin-resistant Enterococcus faecium P-1 relative to vancomycin; type: functional
[11] = system: Staphylococcus epidermidis; experiment: Antimicrobial activity against teicoplanin-resistant Staphylococcus epidermidis 823 relative to vancomycin; type: functional
[12] = system: Enterococcus; experiment: Antimicrobial activity against Enterococcus species; type: functional
[13] = system: Enterococcus equinus; experiment: Antimicrobial activity against vancomycin and teicoplanin-resistant Enterococcus equinus relative to vancomycin
[14] = system: Staphylococcus haemolyticus; experiment: Antimicrobial activity against teicoplanin-sensitive Staphylococcus haemolyticus 712 relative to vancomycin; type: functional
[15] = system: Staphylococcus epidermidis; experiment: Antimicrobial activity against teicoplanin-sensitive Staphylococcus epidermidis 825 relative to vancomycin; type: functional
[16] = system: Staphylococcus haemolyticus; experiment: Antimicrobial activity against teicoplanin-resistant Staphylococcus haemolyticus 712 relative to vancomycin; type: functional

Molecule `CN[C@H](CC(C)C)C(=O)N[C@H]1C(=O)N[C@@H](CC(N)=O)C(=O)N[C@H]2C(=O)N[C@H]3C(=O)N[C@H](C(=O)N[C@H](C(=O)O)c4cc(O)cc(O)c4-c4cc3ccc4O)[C@H](O)c3ccc(c(Cl)c3)Oc3cc2cc(c3O[C@@H]2O[C@H](CO)[C@@H](O)[C@H](O)[C@H]2O[C@H]2C[C@](C)(N)[C@H](O)[C@H](C)O2)Oc2ccc(cc2Cl)[C@H]1O` [VANCOMYCIN] has an MIC [1] greater than 100 µg/mL, an MIC [2] of 0.78 µg/mL (≈ 0.538 µM) and an MIC [3] greater than 100 µg/mL. It also gave an MIC [4] of 0.78 µg/mL (≈ 0.538 µM), an MIC [5] greater than 100 µg/mL and an MIC [6] greater than 100 µg/mL.

`C=C(NC(=O)C(=C)NC(=O)C(=C)NC(=O)c1ccc2c(n1)-c1nc(oc1C)C(=C)NC(=O)C(=C)NC(=O)c1nc(oc1C)/C(=C/C)NC(=O)c1csc(n1)[C@H](OC)NC(=O)c1nc(oc1C)/C(=C\C(C)O)NC(=O)[C@H]([C@@H](C)O)NC(=O)c1csc-2n1)C(N)=O` (stereo partly specified) [METHYLSULFOMYCIN I] was tested, and the fold change (FC) [7] was greater than 800, the MIC [8] was 0.06 µg/mL (≈ 0.0476 µM) and the fold change (FC) [9] was greater than 800. The fold change (FC) [10] was greater than 800, the “fold change (FC)” value [11] was 12.4 and the MIC [12] was 0.06 µg/mL (≈ 0.0476 µM). The fold change (FC) [13] was greater than 800, the “fold change (FC)” value [14] was 6.2 and the “fold change (FC)” value [15] was 6.2. For the same molecule, the “fold change (FC)” value [16] was 12.4.
